Assay results reported in PMC8568920, “Serum apolipoprotein A-I potentiates the therapeutic efficacy of lysocin E against Staphylococcus aureus” (Nature Communications, 2021).
In brackets after ≈: the same amount, converted by molar mass. Where a SMILES comes first, the peptide text is derived from it. Bridges are numbered along the chain shown (N, C = ends). [ ]: non-standard residue; d: D form. The star is where a group is joined. Hexanoyl(3R-OH,5-Me) = CC(C)C[C@@H](O)CC(=O)*; dNMeF = CN[C@H](Cc1ccccc1)C(=O)O

Assays:
rhApoA-I ∆NM = biological target: T1, rhApoA-I ∆NM (Homo sapiens, UniProt P02647, DEL170-184); assay: Bio-layer interferometry, binding to rhApoA-I ∆NM variant; conditions: BLI; biotinylated lysocin E on streptavidin biosensor; 2.5 µM protein
T1 construct: 1 65 146 160 185 243; made in house; host or cells: E. coli BL21(DE3)/pLysS, pET20b (pET-hApo∆NM)
Description: Bio-layer interferometry (BLI) measurements were performed on a BLItz system (ForteBio, Fremont, CA, USA) maintained at room temperature. Kinetic analyses were performed using BLItz Pro ver. 1.2.1.5 (ForteBio). The biotinylated ligand, diluted to 0.1 mg ml^−1 in BLItz buffer (0.05% [v/v] Tween-20 in PBS), was immobilised on a streptavidin biosensor and the kinetic analysis was performed by running BLItz buffer for 300 s each, in the presence and absence of analyte for association and dissociation, respectively. Biotinylated menaquinone (5) and biotinylated lysocin E derivatives (3 and 4) were synthesised as described in the Supplementary Information (Supplementary Figs. 7–15).

MRSA = assay: microbe, parasite or virus in culture
Description: (§1) The antimicrobial activities of the compounds were measured using the microdilution method. Measurement of the bactericidal activity of lysocin E (0.25 µg ml^−1) and nisin (2 µg ml^−1) with or without ApoA-I was performed according to the National Committee for Clinical Laboratory Standards method. […] For the ∆menA and ∆menB strains, TSB medium was used instead of cation-adjusted-Mueller Hinton broth (CA-MHB) in the microdilution method. Sera and ApoA-I, II were added to the bacterial culture before distributing them into 96-well plates. ApoA-I and ApoA-II antimicrobial activity were evaluated using the RN4220 strain. The protein binding rate of lysocin E against human plasma was determined by a rapid equilibrium dialysis device (Thermo Fisher Scientific, Waltham, MA, USA) according to the manufacturer’s instructions.

[1] = test system: S. aureus (MRSA) MR6 (Clinical isolate)
Description: as §1

Bacillus cereus JCM20037 = test system: Bacillus cereus JCM20037
Description: as §1

S. aureus (MRSA) MRSA4 = test system: S. aureus (MRSA) MRSA4
Description: as §1

[2] = test system: S. aureus (MRSA) MR2 (Clinical isolate)
Description: as §1

[3] = test system: Bacillus subtilis JCM2499
Description: as §1

[4] = test system: Staphylococcus haemolyticus JCM2416
Description: as §1

[5] = test system: S. aureus (MRSA) JE2 (USA300)
Description: as §1

[6] = test system: S. aureus Smith ATCC13709
Description: as §1

[7] = test system: S. aureus (MRSA) MR4 (Clinical isolate)
Description: as §1

[8] = test system: S. aureus (MRSA) MR5 (Clinical isolate)
Description: as §1

S. aureus Newman = test system: S. aureus Newman
Description: as §1

[9] = test system: Staphylococcus pseudintermedius JCM17571
Description: as §1

[10] = test system: S. aureus (MRSA) MR1 (Clinical isolate)
Description: as §1

in vitro = conditions: human plasma
Description: as §1

T1 sequence (P02647 with tags, fused parts or gaps DEL170-184): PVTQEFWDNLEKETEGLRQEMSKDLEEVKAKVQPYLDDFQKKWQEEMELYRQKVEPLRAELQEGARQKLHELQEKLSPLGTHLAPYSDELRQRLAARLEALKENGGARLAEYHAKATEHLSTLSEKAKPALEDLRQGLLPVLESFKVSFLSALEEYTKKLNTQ

- Kd (rhApoA-I ∆NM): 5.6 µM
- Antimicrobial activity (MIC) (MRSA): 4 µg/mL
- MIC in 10% bovine serum (MRSA): 0.063 µg/mL (≈ 0.0389 µM)
- MIC of lysocin E, Serum 0% (A) [1]: 4 µg/mL
- MIC of lysocin E, Serum 10% (B) [1]: 0.13 µg/mL
- MIC of lysocin E, Serum 0% (A) (Bacillus cereus JCM20037): 2 µg/mL
- MIC of lysocin E, Serum 10% (B) (Bacillus cereus JCM20037): 0.50 µg/mL
- MIC of lysocin E, Serum 0% (A) (S. aureus (MRSA) MRSA4): 4 µg/mL
- MIC of lysocin E, Serum 10% (B) (S. aureus (MRSA) MRSA4): 0.25 µg/mL
- MIC of lysocin E, Serum 0% (A) [2]: 2 µg/mL
- MIC of lysocin E, Serum 10% (B) [2]: 0.13 µg/mL
- MIC of lysocin E, Serum 0% (A) [3]: 2 µg/mL
- MIC of lysocin E, Serum 10% (B) [3]: 0.25 µg/mL
- MIC of lysocin E, Serum 0% (A) [5]: 4 µg/mL
- MIC of lysocin E, Serum 10% (B) [5]: 0.13 µg/mL
- MIC of lysocin E, Serum 0% (A) [6]: 2 µg/mL
- MIC of lysocin E, Serum 10% (B) [6]: 0.063 µg/mL
- MIC of lysocin E, Serum 0% (A) [7]: 4 µg/mL
- MIC of lysocin E, Serum 10% (B) [7]: 0.13 µg/mL
- MIC of lysocin E, Serum 0% (A) [8]: 4 µg/mL
- MIC of lysocin E, Serum 10% (B) [8]: 0.13 µg/mL
- MIC of lysocin E, Serum 0% (A) (S. aureus Newman): 4 µg/mL
- MIC of lysocin E, Serum 10% (B) (S. aureus Newman): 0.13 µg/mL
- MIC of lysocin E, Serum 0% (A) [9]: 4 µg/mL
- MIC of lysocin E, Serum 10% (B) [9]: 0.13 µg/mL
- MIC of lysocin E, Serum 0% (A) [10]: 4 µg/mL
- MIC of lysocin E, Serum 10% (B) [10]: 0.13 µg/mL
- fraction unbound (in vitro): < 0.01
SMILES: CC[C@H](C)[C@@H]1NC(=O)[C@@H](Cc2c[nH]c3ccccc23)NC(=O)[C@@H](CCC(N)=O)NC(=O)[C@H](CCC(=O)O)NC(=O)[C@@H](CCCNC(=N)N)NC(=O)[C@H](CC(C)C)NC(=O)[C@@H](Cc2ccccc2)N(C)C(=O)CNC(=O)[C@H](CO)NC(=O)[C@@H](CCCNC(=N)N)NC(=O)[C@@H](NC(=O)C[C@H](O)CC(C)C)[C@@H](C)OC(=O)[C@H]([C@@H](C)O)NC1=O [Lysocin E, lysocin E] ({Hexanoyl(3R-OH,5-Me)}-T[dR]SG[dNMeF]L[dR]E[dQ][dW]IT; ester 1-C)
- MIC of lysocin E, Serum 0% (A) [4]: 2 µg/mL
- MIC of lysocin E, Serum 10% (B) [4]: 0.0078 µg/mL
